The structures appear in SMILES notation. In brackets after ≈: the same amount, converted by molar mass.

Our source for the MIC values is ChEMBL document CHEMBL4373724, “An overview of recent progress in siderophore-antibiotic conjugates” (2019).

Holding throughout (assay type): functional
Experiment [1] has as its system Mycobacterium tuberculosis. Nature of the experiment: Antitubercular activity against multi drug resistant Mycobacterium tuberculosis isolate 2.
For experiment [2], the system named is Mycobacterium tuberculosis. Nature of the experiment: Antitubercular activity against multi drug resistant Mycobacterium tuberculosis isolate 6.
For experiment [3], the system named is Mycobacterium tuberculosis. Nature of the experiment: Antitubercular activity against extensively drug resistant Mycobacterium tuberculosis isolate 8.
The subject of experiment [4] is Mycobacterium tuberculosis. The experiment can be described thus: Antitubercular activity against extensively drug resistant Mycobacterium tuberculosis isolate 11.
The test system of experiment [5] is Mycobacterium tuberculosis. Nature of the experiment: Antitubercular activity against multi drug resistant Mycobacterium tuberculosis isolate 4.
The subject of experiment [6] is Mycobacterium tuberculosis. Nature of the experiment: Antitubercular activity against extensively drug resistant Mycobacterium tuberculosis isolate 10.
For experiment [7], the system named is Mycobacterium tuberculosis. The experiment can be described thus: Antitubercular activity against multi drug resistant Mycobacterium tuberculosis isolate 1.
Experiment [8] concerns Mycobacterium tuberculosis. Nature of the experiment: Antitubercular activity against multi drug resistant Mycobacterium tuberculosis isolate 5.
Experiment [9] relates to Mycobacterium tuberculosis. The experiment can be described thus: Antitubercular activity against multi drug resistant Mycobacterium tuberculosis isolate 7.
In experiment [10] the test system is Mycobacterium tuberculosis. The experiment can be described thus: Antitubercular activity against extensively drug resistant Mycobacterium tuberculosis isolate 9.
Experiment [11] has as its system Mycobacterium tuberculosis. The experiment can be described thus: Antitubercular activity against multi drug resistant Mycobacterium tuberculosis isolate 3.

Consider `CCCCCCCCCCCCCCCCC(=O)N(O)CCCC[C@H](NC(=O)[C@@H]1COC(c2ccccc2O)=N1)C(=O)NC[C@H](NC(=O)CCCO[C@H]1O[C@@H]2O[C@@]3(C)CC[C@H]4[C@H](C)CC[C@@H]([C@H]1C)[C@@]24OO3)C(=O)N[C@H]1CCCCN(O)C1=O`, for which the MIC in experiment [1] is 0.625 µg/mL (≈ 0.535 µM); in [2], 0.625 µg/mL (≈ 0.535 µM); in [3] it was 0.31 µg/mL (≈ 0.265 µM); in [4], 0.31 µg/mL (≈ 0.265 µM); in experiment [5], 0.625 µg/mL (≈ 0.535 µM); in [6] it was 0.625 µg/mL (≈ 0.535 µM). The minimal inhibitory concentration (MIC) was 1.25 µg/mL (≈ 1.07 µM) in experiment [7]; 0.156 to 0.312 µg/mL (≈ 0.134 to 0.267 µM) in [8]; 0.312 µg/mL (≈ 0.267 µM) in experiment [9]; 0.078 µg/mL (≈ 0.0668 µM) in experiment [10]; 0.625 µg/mL (≈ 0.535 µM) in experiment [11].

What is called MIC is the least concentration at which growth counts as inhibited. A higher MIC goes with weaker potency.
